These results are taken from patent US12697366B2, “Thermogenic compositions and methods” (Ohio State Innovation Foundation, priority 2016, dated 2026).

pIC50: −log10 of the molar value. Non-standard residues stand in square brackets, D forms with d. Residues, ends and D or L forms follow the SMILES beside them. ξ: configuration not given here. *: point of attachment. Succinyl(20-O-(20S)-CPT) = CC[C@@]1(OC(=O)CCC(=O)*)C(=O)OCc2c1cc1n(c2=O)Cc2cc3ccccc3nc2-1; ξK = NCCCCC(N)C(=O)O; ξC = NC(CS)C(=O)O

The test system of one series is NCI-H23. The series is described as follows: MTT cytotoxicity on NCI-H23. It is filed as cell-based, human. As for the experimental part: (§1) The non-oxidized CPT-CCKK nanotube was assessed for cytotoxic efficacy against human non-small cell lung cancer (NSCLC) cell lines A549, NCI-460, and NCI-H23, which were selected according to the indications of approved CPT derivative Topotecan. […] The explanation for the cytotoxicity results could be that CPT-CCKK release active CPT in a time-dependent manner, and the entire true concentration for CPT in the cell medium is less than that of free CPT. […] It has been reported before that the GSH level in H460 was almost twice higher than that in A549. Therefore, higher concentration of GSH in H460 accelerated the breakage of the disulfide bonds within the crosslinked CPT-CCKK nanotubes, leading to faster release of active CPT and higher in vitro cytoxicity.

The test system of another series is A549. The series is described as follows: MTT cytotoxicity on A549. The format is cell-based. Particulars: Homo sapiens. As for the experimental part:
as §1

Another series concerns NCI-460. The series is described as follows: MTT cytotoxicity on NCI-460 (H460). The format is cell-based. Particulars: Homo sapiens. As for the experimental part:
as §1

In the next series the test system is 3T3-L1 cells. The experiment in a line: LDH release cytotoxicity (CytoTox 96) in 3T3-L1 cells. Particulars: different concentrations, 6 hours. The format is cell-based, mouse. As for the experimental part:
Non-differentiated, 90% confluent 3T3-L1 cells were incubated with different concentrations of nanoscaffolds #1, #2, or #3 for 6 hours. Cytotoxicity was measured the lactate dehydrogenase (LDH), released upon cell lysis using The CytoTox 96 assay (Promega, Cat #G1780).

As for `CC[C@@]1(O)C(=O)OCc2c1cc1n(c2=O)Cc2cc3ccccc3nc2-1` [CPT, Camptothecin], the pIC50 was 6.72 in the series on NCI-H23 (Homo sapiens, NCI-H23, 96 h MTT, experiment with non-oxidized nanotube (FIG. 36A)); 6.70 with A549 (96 h MTT, experiment with non-oxidized nanotube (FIG. 36A)); roughly 6.08 in the series on A549 (experiment with crosslinked nanotubes (FIG. 36B)); 6.57 with NCI-460 (NCI-460, 96 h MTT, experiment with non-oxidized nanotube (FIG. 36A)); 6.46 in the series with NCI-460 (H460, experiment with crosslinked nanotubes (FIG. 36B)).

`CC[C@@]1(OC(=O)CCC(=O)NC(CS)C(=O)NC(CS)C(=O)NC(CCCCN)C(=O)NC(CCCCN)C(N)=O)C(=O)OCc2c1cc1n(c2=O)Cc2cc3ccccc3nc2-1` (stereo partly drawn) [CPT-CCKK] ({Succinyl(20-O-(20S)-CPT)}-[ξC][ξC][ξK][ξK]-NH2): the “less cytotoxic than parental drug CPT” value in the series with NCI-H23 (H23 cell lines) was “roughly 3 folds”.

On to `CCN(CC)c1ccc2cc(C(=O)NCCCC[C@H](NC(=O)[C@H](CCCCN)NC(=O)OCC3c4ccccc4-c4ccccc43)C(N)=O)c(=O)oc2c1` [nanoscaffold #2, Fmoc-KK(DAC)], for which the “cytotoxicity (LDH release)” value in the series on 3T3-L1 cells was “not toxic”.

Regarding Fmoc-KK(SucBz) [nanoscaffold #1], the “cytotoxicity (LDH release)” value in the series on 3T3-L1 cells is listed as “not toxic”.
